Patent US20250127719A1, “ANISAMIDE-CONTAINING LIPIDS AND COMPOSITIONS AND METHODS OF USE THEREOF” (The Trustees Of The University Of Pennsylvania, priority 2021, published 2025)

Tests used:
[1] = system: activated 3T3-GFP fibroblasts; experiment: High-throughput screening of LNPs: GFP knockdown, plate reader; format: cell-based, murine; settings: 50 nM siGFP, 48 h post-treatment
Experimental: High-throughput screening of LNPs was performed by evaluating GFP knockdown efficiency in 96-well plates using a plate reader assay. 3T3-GFP cells were re-suspended in DMEM containing 10 ng/ml of TGF-β, and seeded into a 96-well plate at a density of 5,000 cells per well. After 24 h, activated cells were treated with various LNPs loaded with siGFP (50 nM). At 48 h post-treatment, the GFP signal in each well was obtained using an Infinite M Plex plate reader (Tecan, Morrisville, NC, USA) with an excitation of 488 nm and an emission of 520 nm. Cell viability was measured using a CellTiter-Glo Luminescent Cell Viability Assay according to the manufacturer's instruction (G7572, Promega).

[2] = siRNA encapsulation efficiency, RiboGreen RNA assay; format: physicochemical; settings: weight ratio of AA-T3A-C12:siRNA 10:1
Experimental: (§1) The hydrodynamic diameter, polydispersity index (PDI), and zeta potential of LNPs were measured using a Zetasizer Nano ZS90 (Malvern Instruments, Malvern, UK). The morphology of LNPs was characterized by transmission electron microscopy (JEOL 1010, Tokyo, Japan). The siRNA-LNP complex was analyzed by agarose gel electrophoresis. siRNA encapsulation efficiency was determined using a modified Quant-iT RiboGreen RNA assay (Invitrogen) as previously described. The pKa of LNP was determined by 6-(p-toluidinyl)naphthalene-2-sulfonic acid (TNS) assay as previously described.

[3] = Gel retardation assay (agarose gel electrophoresis); format: physicochemical; settings: weight ratio of AA-T3A-C12:siRNA above 5:1; 500 ng siRNA per lane
Experimental: FIGS. 11A-11B depict optimization of the weight ratio of AA-T3A-C12 to siRNA. FIG. 11A: gel retardation assay. LNPs with different weight ratios of AA-T3A-C12:siRNA were analyzed by 1% agarose gel electrophoresis. 500 ng siRNA was loaded into each lane. […] FIG. 11B: RiboGreen RNA assay. The siRNA encapsulation efficiency reached a plateau of ˜90% when the weight ratio of AA-T3A-C12:siRNA was 10:1. Data are presented as mean±SD (n=3).
as §1

[4] = system: activated 3T3-GFP fibroblasts; experiment: Second-round screening: dependency on sigma receptor-mediated transfection (haloperidol pre-treatment); format: cell-based, murine; settings: 30 μM haloperidol 2 h, then 50 nM siGFP LNP 48 h
Experimental: The top-performing LNPs were subjected to a second round of screening by evaluating their dependency on sigma receptor-mediated transfection. Activated 3T3-GFP cells were treated with or without haloperidol (30 μM) for 2 h before various LNPs loaded with siGFP (50 nM) were used to treat these cells for another 48 h. The GFP signal in each well was obtained as described above.

| siRNA encapsulation efficiency plateau [2] | free siRNA in gel retardation assay [3] | Compound | GFP knockdown [1] | change of GFP silencing activity after haloperidol (HP) treatment [4] |
| --- | --- | --- | --- | --- |
| – | – | CCCCCCCCCCC(O)CN(CCN(CCNC(=O)c1ccc(OC)cc1)CCN(CC(O)CCCCCCCCCC)CC(O)CCCCCCCCCC)CC(O)CCCCCCCCCC (stereo not shown) [AA-110-C12] | ~70% | – |
| ~90% | Little to no free siRNA was observed | CCCCCCCCCCC(O)CN(CCCN(CCCNC(=O)c1ccc(OC)cc1)CCCN(CC(O)CCCCCCCCCC)CC(O)CCCCCCCCCC)CC(O)CCCCCCCCCC (stereo not shown) [AA-T3A-C12, N-(3-(bis(3-(bis(2-hydroxydodecyl)amino)propyl)amino)propyl)-4-methoxybenzamide] | – | the most significant loss of activity |
